Calls of active or inactive are those of the source. The calls are words filed in the database; no cut-off is given here.

One assay has as its system HCT-116. Description: Cytotoxicity against human HCT116 cells after 72 hrs. The format is functional.
The next assay concerns A549. The assay is described as follows: Cytotoxicity against human A549 cells after 72 hrs. The format is functional.
Another assay deals with Geotrichum candidum. Description: Antifungal activity against Geotrichum candidum at 300 ug/disk. The format is functional, organism-based.
In assay [1] the test system is Bacillus subtilis. Description: Antibacterial activity against Bacillus subtilis at 100 ug/disk after overnight incubation by agar diffusion method. It counts as functional. Particulars: read-out: IZ. In general terms: Agar diffusion results depend on both activity and mobility in agar.
Assay [2] concerns Staphylococcus aureus. The assay is described as follows: Antibacterial activity against Staphylococcus aureus at 100 ug/disk after overnight incubation by agar diffusion method. The format is functional. The following applies: read-out: IZ.
The next assay has as its system Saccharomyces cerevisiae. Description: Antifungal activity against Saccharomyces cerevisiae at 300 ug/disk. The format is functional, organism-based.
The subject of assay [3] is Staphylococcus aureus. The assay is described as follows: Antibacterial activity against Staphylococcus aureus at 30 ug after overnight incubation by agar diffusion method. It counts as functional. Particulars: read-out: IZ.
Assay [4] has as its system Bacillus subtilis. Description: Antibacterial activity against Bacillus subtilis at 30 ug after overnight incubation by agar diffusion method. The format is functional, organism-based.

For the molecule `COc1cc([C@@H]2c3cc4c(cc3[C@@H](O[C@@H]3O[C@@H]5CO[C@@H](C)O[C@H]5[C@H](O)[C@H]3O)[C@H]3COC(=O)[C@H]23)OCO4)cc(OC)c1O` [ETOPOSIDE], the IC100 with HCT-116 came out at 125 µg/mL; in the assay on A549, 30 µg/mL.
For `CC(=O)OC[C@]12Oc3ccc(-c4ccc5c(c4O)C(=O)C4=C(O)C[C@@H](C)[C@@H](OC(C)=O)[C@@]4(COC(C)=O)O5)c(O)c3C(=O)C1=C(O)C[C@@H](C)[C@H]2OC(C)=O` [DICERANDROL C], the outcome in the assay on Geotrichum candidum and in the assay on Saccharomyces cerevisiae was inactive. For the same molecule, the IC100 with HCT-116 was found to be 7 µg/mL; with A549, 1.8 µg/mL. Also, the zone of inhibition at 100 µg/disc turned out to be 8 mm in the assay on Bacillus subtilis [1] and 7 mm in the assay on Staphylococcus aureus [2].
On to `CC(=O)OC[C@]12Oc3ccc(-c4ccc5c(c4O)C(=O)C4=C(O)C[C@@H](C)[C@@H](OC(C)=O)[C@@]4(CO)O5)c(O)c3C(=O)C1=C(O)C[C@@H](C)[C@H]2OC(C)=O` [DICERANDROL B], for which the result in the assay on Geotrichum candidum and with Saccharomyces cerevisiae was inactive. Besides, the IC100 with HCT-116 and in the assay on A549 was 1.8 µg/mL in each case. Also, the zone of inhibition at 100 µg/disc in the assay on Bacillus subtilis [1] was determined as 9.5 mm; in the assay with Staphylococcus aureus [2], 8.5 mm.
Turning to `NC[C@@H]1O[C@H](O[C@H]2[C@@H](O)[C@H](O[C@@H]3[C@@H](O)[C@H](N)C[C@H](N)[C@H]3O[C@H]3O[C@H](CN)[C@@H](O)[C@H](O)[C@H]3N)O[C@@H]2CO)[C@H](N)[C@@H](O)[C@@H]1O` [FRAMYCETIN], in the assay with Staphylococcus aureus [3], the zone of inhibition at 30 µg/disc was found to be 9 mm.
Consider NYSTATIN, for which the inhibition zone (IZ) in the assay with Bacillus subtilis [4] was 12 mm.
Turning to `CC(=O)O[C@@H]1[C@H](C)CC(O)=C2C(=O)c3c(ccc(-c4ccc5c(c4O)C(=O)C4=C(O)C[C@@H](C)[C@@H](OC(C)=O)[C@@]4(CO)O5)c3O)O[C@@]21CO` [DICERANDROL A], the outcome with Geotrichum candidum and with Saccharomyces cerevisiae was inactive. The IC100 in the assay on HCT-116 and with A549 was 7 µg/mL each time. For the same molecule, the values for the zone of inhibition at 100 µg/disc in the assay with Bacillus subtilis [1] and in the assay with Staphylococcus aureus [2] were 11 mm and 10.8 mm, respectively.

Source of the values: ChEMBL document CHEMBL1155740, “Dicerandrols, new antibiotic and cytotoxic dimers produced by the fungus Phomopsis longicolla isolated from an endangered mint” (2001).
